# Read-outs that look alike come from different tables or passages of the source.
# Legend:
# Den-2 virus (P23085) = assay: Plaque reduction assay, Den-2 in BHK 21 cells; type: cell-based, Dengue-2 virus; conditions: non-cytotoxic concentrations
# JEV, WNV and Den-2 = assay: Cytopathic effect (CPE) inhibition assay; type: cell-based; conditions: screen against JEV, doubling dilutions beginning with CC50
# [1] = tested on: JEV replication in PS cells; assay: Kinetics of antiviral activity: staggered addition of SCH 16 to JEV infected PS cells; type: cell-based, Japanese Encephalitis Virus; conditions: for Inhibition of JEV replication (viral RNA, viral antigen, virus yield): read at 48 hours; for JEV antigen by immunofluorescence: Figure 3 Panel B
# [2] = tested on: JEV replication in PS cells; assay: Minimum contact time: SCH 16 removed at time points from JEV infected PS cells; type: cell-based, Japanese Encephalitis Virus
# JEV = assay: In vivo evaluation by intracerebral JEV challenge; design: species or system Swiss albino mice
# JEV (P20778) [3] = assay: In vivo evaluation by peripheral (intraperitoneal) JEV challenge; design: species or system Swiss albino mice; conditions: for Protection: mice, 50LD50 JEV intraperitoneal
# in vitro [4] = conditions: pig
# in vitro [5] = conditions: hamster
# JEV (P20778) [6] = assay: Plaque reduction assay, JEV in PS cells; conditions: for IC50: Japanese encephalitis virus
# WNV (G22886) = assay: Plaque reduction assay, WNV in PS cells; conditions: for IC50: West Nile virus
# JEV translation = assay: In vitro translation of RNA from SCH 16 treated JEV infected PS cells
# [7] = read-out: IC50, plaque reduction, JEV (molar)
# [8] = read-out: IC50, plaque reduction, WNV (molar)
compound,measurement,setting,value
COc1cc(-c2cnc(/N=C3\C(=O)N(CN4CCN(c5ccc([N+](=O)[O-])cc5)CC4)c4ccccc43)nc2N)cc(OC)c1OC [SCH 16],Antiviral activity against Den-2 plaque formation,Den-2 virus (P23085),No antiviral activity
same,Inhibition of CPE,"JEV, WNV and Den-2",showed inhibition of CPE
same,"Inhibition of JEV replication (viral RNA, viral antigen, virus yield)","[1]; 76 μg/ml added at 2, 4, 6 and 8 hours post-infection",completely inhibit
same,JEV antigen by immunofluorescence,"[1]; SCH 16 added at 0, 2, 4, 6 and 8 hrs post infection",undetectable
same,JEV antigen by immunofluorescence,"[1]; SCH 16 added at 10, 12 and 14 hours post infection",positive for viral antigen
same,"Inhibition of JEV replication (viral RNA, viral antigen, virus yield)",[1]; added beyond 8 hours post infection,did not completely inhibit
same,Minimum contact period required to completely inhibit virus replication,[2]; JEV infected PS cells,8 h
same,"Inhibition of virus replication (viral antigen, viral RNA, infectious virus yield)",[2]; SCH 16 in contact with infected cultures for more than 8 hours post-infection,complete inhibition of virus replication
same,"Inhibition of virus replication (viral antigen, viral RNA, infectious virus yield)",[2]; SCH16 withdrawn at earlier time points,no inhibition of virus replication
same,Day of death,"JEV; mouse, in vivo",9 days
same,Prolonged survival time between treated and untreated mice,"JEV; mouse, in vivo",3 days
same,Protection,"JEV; mouse, in vivo",no protection
same,Day post-infection when symptoms started appearing,"JEV; treated mice, intracerebral challenge, untreated sick by day 3",7 days
same,Protection,JEV (P20778) [3]; 200 mg/kg body weight oral twice daily,25%
same,Protection,JEV (P20778) [3]; 400 mg/kg body weight oral twice daily,50%
same,Protection,JEV (P20778) [3]; 500 mg/kg body weight oral twice daily,complete protection
same,Prevention of mortality,"JEV (P20778) [3]; mouse, in vivo",100%
same,Viral RNA in brain homogenate by RT-PCR,"JEV (P20778) [3]; mouse, in vivo",viral RNA was present
same,Viral antigen in brain smears by immunofluorescent staining,"JEV (P20778) [3]; mouse, in vivo",no viral antigen could be demonstrated
same,Virus isolation from brain tissue of surviving mice,"JEV (P20778) [3]; mouse, in vivo",could not be isolated
same,CC50,in vitro [4],76 µg/mL
same,CC50,in vitro [5],126 µg/mL
same,IC50,"JEV (P20778) [6]; read-out: IC50, concentration inhibiting 50% of the plaques produced by JEV",16 µg/mL
same,IC50,JEV (P20778) [6]; [7],25 µM
same,"Therapeutic Index (TI), CC50/IC50, JEV",JEV (P20778) [6]; ratio of CC50 to IC50,5
same,IC50,"WNV (G22886); read-out: IC50, concentration inhibiting 50% of the plaques produced by WNV",4 µg/mL
same,IC50,WNV (G22886); [8],6 µM
same,"Therapeutic Index (TI), CC50/IC50, WNV",WNV (G22886); ratio of CC50 to IC50,19
same,In vitro translation of viral RNA into JEV proteins,JEV translation; RNA from JEV infected cells treated with SCH 16 for 4 hours,failed to translate into JEV proteins
same,In vitro translation of viral RNA into JEV proteins,JEV translation; RNA from infected cells treated with SCH 16 at 10 hours,showed the presence of JEV proteins
"NC(=O)c1ncn([C@@H]2O[C@H](CO)[C@@H](O)[C@H]2O)n1 [Ribavirin, reference compound]",Antiviral activity against Den-2 plaque formation,Den-2 virus (P23085),dose dependent inhibition
same,CC50,in vitro [4],50 µg/mL
same,CC50,in vitro [5],200 µg/mL
same,IC50,"JEV (P20778) [6]; 72 h, read-out: IC50, plaque reduction, JEV",3.9 µg/mL
same,IC50,JEV (P20778) [6]; [7],16 µM
same,IC50,"WNV (G22886); read-out: IC50, plaque reduction, WNV",1.7 µg/mL
same,IC50,WNV (G22886); [8],7 µM

# — article PMC2408923, “N-methylisatin-beta-thiosemicarbazone derivative (SCH 16) is an inhibitor of Japanese encephalitis virus infection in vitro and in vivo” (Virology Journal, 2008)
